One data set concerns E. faecalis 31972. Format: cell-based. As to the method: (§1) To test the toxicity of glucose-d7 to bacteria, E. faecalis 31970 and 31972 were cultivated in custom-made M9 medium, one with normal glucose for control and the other with glucose-d7. The growth of bacteria was monitored by optical density (OD) measurement at 600 nm for up to 22 hours (FIG. 9). […] FIG. 9A illustrates OD measurement for vancomycin susceptible enterococci cultured in M9 medium with either 2% normal glucose or 2% glucose-d7, whereas FIG. 9B illustrates OD measurement for vancomycin resistant enterococci cultured in M9 medium with either 2% normal glucose or 2% glucose-d7.

The next data set concerns E. faecalis 31970. Format: cell-based. As to the method:
as §1

Take `[2H]C(=O)[C@]([2H])(O)[C@@]([2H])(O)[C@]([2H])(O)[C@]([2H])(O)C([2H])([2H])O` [glucose-d7]: the “toxicity to bacterial growth” value in the data set with E. faecalis 31972 and in the data set with E. faecalis 31970 was “no toxicity” in each case.

The values are drawn from patent publication US12644143B2, “Method for the determination of antibiotic susceptibility through stimulated Raman metabolic imaging” (priority 2017, dated 2026).
